Source: paper PMC3578829, “A Small Molecule (Pluripotin) as a Tool for Studying Cancer Stem Cell Biology: Proof of Concept” (PLoS ONE, 2013)
pIC50: −log10 of the molar value.

Tests used:
COLO 205 [1] = assay: Soft agar cloning assay; type: cell-based
Experimental: (§1) The soft agar colony formation assay has been previously described. In brief, for each treatment condition, triplicate 35 mm^2 dishes were coated with a 1 ml base layer containing 0.7% agarose (Seaplaque: FMC Corp., Rockland, ME). On day 0, cells were dissociated, washed once in growth medium, and subcultured by layering various cell concentrations in 0.5 ml culture medium containing 0.3% agarose onto the base coat. Culture dishes were transferred to a refrigerator (4°C) for 15 min, to room temperature for 10 min, and then to culture incubators. An upper layer of 0.5 ml culture medium was applied on day 0. Cultures were stained with MTT (1 mg/ml) for visualization and imaging at multiple time intervals (day 7 and 14). Cumulative counts of colonies (diameters, >60 µm) and cumulative volumes of CFU (diameters >120 µm) were determined with an Omnicon FAS-II (Bausch & Lomb, Rochester, NY) following calibration with an Omnicon test plate 3 and polystyrene microspheres embedded in soft agar matrix. The evaluable region of each culture dish (35 contiguous fields equivalent to 51% of the cell layer culture volume) was analyzed. Selective scoring of viable cell groups was achieved by adjustment of the instrument detection threshold to exclude images of nonstained cellular material and debris. The data was analyzed with Lotus Symphony software.

HCC-2998 = assay: Soft agar cloning assay; type: cell-based
Experimental: as §1

HCT-116 [2] = assay: Soft agar cloning assay; type: cell-based
Experimental: as §1

HT29 = assay: Soft agar cloning assay; type: cell-based
Experimental: as §1

KM12 = assay: Soft agar cloning assay; type: cell-based
Experimental: as §1

COLO 205 [3] = assay: FACS analysis of putative CSC surface markers; type: cell-based; details: five days of SC-1 treatment
Description: A BD FACsAria (BD Biosciences, San Jose, CA) was utilized for FACS analysis according to standard procedures. The instrument was equipped with a 488 nm 100 mW blue laser, a 638 nm 30 mW red laser, and a 405 nm 50 mW violet laser. The software package Diva 5.0 (BD Biosciences) was used for collection and analysis of data. The alignment of the three lasers in the flow cell was verified prior to running tumor cell samples by running Rainbow Beads (Spherotech). The six colors being used in the analysis were then compensated to account for spectral overlap emitted by the fluorochromes within each laser as well as across the lasers using a semi-automated process. […] The data was then run through the Diva software compensation matrices and the amount of “spectral bleed” from other fluorochromes into the fluorochrome of interest’s channel was determined and automatically compensated.
Treated and untreated cells (1×10^6 cells/condition) were harvested with trypsin EDTA (Invitrogen), washed, and then labeled with a six antibody cocktail (antibodies against the following epitopes: CD44, CD24, CD133, CD326, CD166, and P-glycoprotein in PBS without calcium and magnesium supplemented with 2% FBS) or appropriate isotype control antibodies. […] The specific amounts needed for each labeled antibody were determined through titration studies. […]

HCT-116 [4] = assay: Cell cycle analysis; type: cell-based; details: harvested day 5
Experimental: Approximately 5×10^6 cells were washed with PBS, resuspended in 5 ml of 4°C 70% ethyl alcohol (ETOH) and then incubated at 4°C for 30 min. The sample was washed again before the addition of 0.5 ml PBS containing 0.2 mg/ml of RNAse A. The sample was then incubated at 37°C for 15 minutes. Next, 0.5 ml propidium iodide (0.05 mg/ml in PBS) was added and incubated at 4°C in the dark for 15 min. The sample was then analyzed on the FACScan (Becton Dickinson, San Jose, CA) flow cytometer. Modfit software evaluated DNA content with an automatic module to determine the fraction of cells in the cell cycle compartments.

Abl1 = target: T1, Abl1 (Homo sapiens, UniProt P00519); assay: Miniaturized 33P-based kinase screening assay; type: biochemical; details: max 10 µM, 3-fold serial dilution, n = 2
T1 construct: purchased Reaction Biology Corporation (Malvern, PA), contract assay
T1 sequence (P00519 whole entry): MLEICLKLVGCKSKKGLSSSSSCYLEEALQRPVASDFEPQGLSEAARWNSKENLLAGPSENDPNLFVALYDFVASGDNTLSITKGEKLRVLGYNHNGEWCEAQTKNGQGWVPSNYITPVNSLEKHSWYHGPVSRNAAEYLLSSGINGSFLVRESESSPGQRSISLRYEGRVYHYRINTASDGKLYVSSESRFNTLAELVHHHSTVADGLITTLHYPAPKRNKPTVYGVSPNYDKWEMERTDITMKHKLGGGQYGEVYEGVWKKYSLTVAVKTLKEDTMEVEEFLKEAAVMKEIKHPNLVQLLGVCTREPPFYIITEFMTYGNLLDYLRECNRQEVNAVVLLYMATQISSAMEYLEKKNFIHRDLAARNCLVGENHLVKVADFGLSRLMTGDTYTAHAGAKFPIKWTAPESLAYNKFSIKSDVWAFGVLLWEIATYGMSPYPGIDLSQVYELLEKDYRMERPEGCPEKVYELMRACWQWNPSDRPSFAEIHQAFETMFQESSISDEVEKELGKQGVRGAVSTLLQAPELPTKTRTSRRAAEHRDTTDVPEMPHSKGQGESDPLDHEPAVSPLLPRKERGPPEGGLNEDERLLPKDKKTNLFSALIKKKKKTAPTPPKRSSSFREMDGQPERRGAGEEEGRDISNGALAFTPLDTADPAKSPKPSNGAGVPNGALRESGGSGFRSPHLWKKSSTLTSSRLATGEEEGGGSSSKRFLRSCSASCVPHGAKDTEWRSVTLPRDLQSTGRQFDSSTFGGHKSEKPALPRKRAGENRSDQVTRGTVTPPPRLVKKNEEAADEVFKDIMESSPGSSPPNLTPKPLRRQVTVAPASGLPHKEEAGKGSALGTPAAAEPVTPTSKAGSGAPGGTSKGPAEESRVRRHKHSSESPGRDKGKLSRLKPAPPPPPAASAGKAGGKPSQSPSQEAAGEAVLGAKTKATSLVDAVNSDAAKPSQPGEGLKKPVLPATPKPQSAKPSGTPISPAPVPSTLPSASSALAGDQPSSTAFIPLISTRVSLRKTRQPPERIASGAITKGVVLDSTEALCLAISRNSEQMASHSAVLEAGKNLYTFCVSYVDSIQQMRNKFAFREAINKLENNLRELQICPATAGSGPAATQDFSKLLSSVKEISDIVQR
Experimental: (§2) The RSK2 in vitro kinase inhibition assay utilized was a modification of protocols established by Nguyen et al.. Additional protocols that confirmed the results depicted in Figure 4 and evaluated kinase inhibitory activity in a random selection of protein kinases (Table 3) were conducted at Reaction Biology Corporation (Malvern, PA). This was a miniaturized ^33P-based screening assay.

PLK2 = target: T2, PLK2 (Homo sapiens, UniProt Q9NYY3); assay: Miniaturized 33P-based kinase screening assay; type: biochemical; details: max 10 µM, 3-fold serial dilution, n = 2
T2 construct: purchased Reaction Biology Corporation (Malvern, PA), contract assay
T2 sequence (Q9NYY3 whole entry): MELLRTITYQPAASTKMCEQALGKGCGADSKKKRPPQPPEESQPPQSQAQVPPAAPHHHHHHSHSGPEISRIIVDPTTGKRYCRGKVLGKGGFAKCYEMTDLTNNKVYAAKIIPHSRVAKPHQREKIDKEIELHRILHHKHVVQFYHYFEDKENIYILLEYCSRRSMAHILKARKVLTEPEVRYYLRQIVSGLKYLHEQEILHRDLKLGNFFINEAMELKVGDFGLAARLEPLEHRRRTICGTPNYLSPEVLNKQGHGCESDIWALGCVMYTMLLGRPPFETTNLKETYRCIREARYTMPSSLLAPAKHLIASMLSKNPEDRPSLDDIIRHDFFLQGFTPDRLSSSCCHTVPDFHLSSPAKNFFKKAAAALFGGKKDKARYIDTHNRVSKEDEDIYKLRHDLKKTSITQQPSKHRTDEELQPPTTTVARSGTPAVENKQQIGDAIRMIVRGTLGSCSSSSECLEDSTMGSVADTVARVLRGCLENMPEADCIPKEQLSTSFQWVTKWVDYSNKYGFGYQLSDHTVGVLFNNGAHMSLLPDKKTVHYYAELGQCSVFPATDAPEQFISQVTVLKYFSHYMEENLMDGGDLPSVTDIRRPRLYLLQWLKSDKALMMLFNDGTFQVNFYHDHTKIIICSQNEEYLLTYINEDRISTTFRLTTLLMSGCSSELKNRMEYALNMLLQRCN
Experimental: as §2

RSK1 = target: T3, RSK1 (Homo sapiens, UniProt Q15418); assay: Miniaturized 33P-based kinase screening assay; type: biochemical; details: max 10 µM, 3-fold serial dilution, n = 2
T3 construct: purchased Reaction Biology Corporation (Malvern, PA), contract assay
T3 sequence (Q15418 whole entry): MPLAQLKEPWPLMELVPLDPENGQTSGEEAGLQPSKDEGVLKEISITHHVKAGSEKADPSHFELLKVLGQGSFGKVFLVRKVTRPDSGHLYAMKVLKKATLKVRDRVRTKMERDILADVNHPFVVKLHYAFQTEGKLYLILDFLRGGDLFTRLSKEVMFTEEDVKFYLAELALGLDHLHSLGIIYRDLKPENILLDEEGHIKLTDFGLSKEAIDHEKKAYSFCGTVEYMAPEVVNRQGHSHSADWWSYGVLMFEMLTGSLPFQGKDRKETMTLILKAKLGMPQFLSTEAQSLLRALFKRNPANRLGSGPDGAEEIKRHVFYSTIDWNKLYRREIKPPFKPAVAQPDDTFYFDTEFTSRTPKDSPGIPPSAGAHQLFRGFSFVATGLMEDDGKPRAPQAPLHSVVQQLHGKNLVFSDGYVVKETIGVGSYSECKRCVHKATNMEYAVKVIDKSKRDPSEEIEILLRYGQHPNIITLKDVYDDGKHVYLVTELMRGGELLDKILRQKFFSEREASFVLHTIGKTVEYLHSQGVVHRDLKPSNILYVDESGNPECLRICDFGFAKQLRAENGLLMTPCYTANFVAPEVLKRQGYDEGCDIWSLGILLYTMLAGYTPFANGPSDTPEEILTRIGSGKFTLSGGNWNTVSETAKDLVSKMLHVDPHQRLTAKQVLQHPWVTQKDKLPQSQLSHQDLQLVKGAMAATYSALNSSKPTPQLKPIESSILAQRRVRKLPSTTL
Experimental: as §2

RSK2 = RSK2 (Homo sapiens, UniProt P51812); assay: Miniaturized 33P-based kinase screening assay; type: biochemical; details: max 10 µM, 3-fold serial dilution, n = 2
Chain of RSK2 (P51812 whole entry, species assumed): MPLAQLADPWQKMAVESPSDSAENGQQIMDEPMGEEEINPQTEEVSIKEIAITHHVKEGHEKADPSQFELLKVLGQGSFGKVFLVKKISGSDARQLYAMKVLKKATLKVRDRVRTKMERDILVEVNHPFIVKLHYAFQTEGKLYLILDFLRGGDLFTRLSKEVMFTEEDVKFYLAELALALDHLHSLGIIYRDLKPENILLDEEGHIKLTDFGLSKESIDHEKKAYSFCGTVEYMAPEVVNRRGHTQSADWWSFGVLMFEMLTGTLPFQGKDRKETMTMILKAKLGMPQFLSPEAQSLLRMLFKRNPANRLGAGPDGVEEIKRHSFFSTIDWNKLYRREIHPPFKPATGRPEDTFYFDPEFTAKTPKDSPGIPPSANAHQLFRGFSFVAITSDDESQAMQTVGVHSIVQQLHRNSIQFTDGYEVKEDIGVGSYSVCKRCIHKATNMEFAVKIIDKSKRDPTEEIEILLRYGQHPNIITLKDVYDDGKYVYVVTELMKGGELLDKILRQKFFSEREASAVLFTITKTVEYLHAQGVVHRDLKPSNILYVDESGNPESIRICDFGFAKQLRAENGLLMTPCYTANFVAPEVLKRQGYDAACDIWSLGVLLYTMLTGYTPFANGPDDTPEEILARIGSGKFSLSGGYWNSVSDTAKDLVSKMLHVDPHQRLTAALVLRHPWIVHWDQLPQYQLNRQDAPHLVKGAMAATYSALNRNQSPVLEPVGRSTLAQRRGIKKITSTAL
Experimental: as §2

RSK3 = target: T4, RSK3 (Homo sapiens, UniProt Q15349); assay: Miniaturized 33P-based kinase screening assay; type: biochemical; details: max 10 µM, 3-fold serial dilution, n = 2
T4 construct: purchased Reaction Biology Corporation (Malvern, PA), contract assay
T4 sequence (Q15349 whole entry): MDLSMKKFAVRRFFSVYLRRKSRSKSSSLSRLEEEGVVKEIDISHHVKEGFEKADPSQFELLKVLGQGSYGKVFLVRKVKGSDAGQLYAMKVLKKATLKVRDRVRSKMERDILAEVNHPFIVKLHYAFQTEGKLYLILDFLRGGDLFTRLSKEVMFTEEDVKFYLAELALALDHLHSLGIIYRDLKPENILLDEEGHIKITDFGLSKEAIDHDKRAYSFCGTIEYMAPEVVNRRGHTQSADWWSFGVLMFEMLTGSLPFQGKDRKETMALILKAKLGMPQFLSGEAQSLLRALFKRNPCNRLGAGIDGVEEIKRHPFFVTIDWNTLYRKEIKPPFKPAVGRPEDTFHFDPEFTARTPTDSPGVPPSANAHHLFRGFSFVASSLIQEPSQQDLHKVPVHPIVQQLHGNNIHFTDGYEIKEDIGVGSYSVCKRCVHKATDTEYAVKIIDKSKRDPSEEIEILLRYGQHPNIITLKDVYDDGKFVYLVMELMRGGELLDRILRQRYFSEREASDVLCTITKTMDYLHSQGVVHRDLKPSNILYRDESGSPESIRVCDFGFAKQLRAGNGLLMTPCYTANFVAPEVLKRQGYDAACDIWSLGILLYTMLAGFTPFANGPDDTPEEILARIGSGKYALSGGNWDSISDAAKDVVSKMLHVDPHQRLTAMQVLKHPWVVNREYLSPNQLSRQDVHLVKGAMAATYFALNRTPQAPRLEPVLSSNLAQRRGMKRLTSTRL
Experimental: as §2

RSK4 = target: T5, RSK4 (Homo sapiens, UniProt Q9UK32); assay: Miniaturized 33P-based kinase screening assay; type: biochemical; details: max 10 µM, 3-fold serial dilution, n = 2
T5 construct: purchased Reaction Biology Corporation (Malvern, PA), contract assay
T5 sequence (Q9UK32 whole entry): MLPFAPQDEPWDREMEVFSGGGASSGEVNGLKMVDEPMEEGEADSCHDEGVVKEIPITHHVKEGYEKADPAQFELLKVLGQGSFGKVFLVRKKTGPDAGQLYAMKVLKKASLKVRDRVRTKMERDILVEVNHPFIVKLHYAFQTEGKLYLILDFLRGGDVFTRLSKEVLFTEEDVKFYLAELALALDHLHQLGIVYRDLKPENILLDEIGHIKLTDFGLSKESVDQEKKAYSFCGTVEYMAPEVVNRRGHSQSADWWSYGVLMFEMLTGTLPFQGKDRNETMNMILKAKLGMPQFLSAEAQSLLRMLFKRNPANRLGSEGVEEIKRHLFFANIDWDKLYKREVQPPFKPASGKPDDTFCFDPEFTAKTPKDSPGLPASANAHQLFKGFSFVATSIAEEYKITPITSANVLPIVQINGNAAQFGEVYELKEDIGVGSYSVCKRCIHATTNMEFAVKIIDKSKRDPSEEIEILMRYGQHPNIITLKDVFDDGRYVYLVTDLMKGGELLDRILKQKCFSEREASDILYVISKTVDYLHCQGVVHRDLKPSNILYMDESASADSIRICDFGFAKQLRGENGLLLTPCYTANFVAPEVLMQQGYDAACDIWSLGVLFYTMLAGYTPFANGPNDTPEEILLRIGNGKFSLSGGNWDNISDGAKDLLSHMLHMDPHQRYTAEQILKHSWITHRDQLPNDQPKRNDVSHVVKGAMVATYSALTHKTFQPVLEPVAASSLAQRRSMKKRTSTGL
Experimental: as §2

p70S6K = target: T6, p70S6K (Homo sapiens, UniProt P23443); assay: Miniaturized 33P-based kinase screening assay; type: biochemical; details: max 10 µM, 3-fold serial dilution, n = 2
T6 construct: purchased Reaction Biology Corporation (Malvern, PA), contract assay
Experimental: as §2

[5] = soft agar, summary of SC-1 effects

SMILES: Cc1cc(Nc2ncc3c(n2)N(C)C(=O)N(c2cc(NC(=O)c4cccc(C(F)(F)F)c4)ccc2C)C3)n(C)n1 [SC-1]
- Colony formation in soft agar vs control (COLO 205 [1]; 0.1 µM SC-1 for 24 hrs prior to cloning): increased colony formation was found only at the highest plating density
- Cloning efficiency in soft agar vs control (COLO 205 [1]; 0.1 µM SC-1 for five days): significant increases in cloning efficiencies
- Clonogenicity (COLO 205 [1]; [5]): Y
- Cloning efficiency in soft agar vs control (HCC-2998; 0.1 µM SC-1 for five days): significant increases in cloning efficiencies
- Clonogenicity (HCC-2998; [5]): Y
- Cloning efficiency in soft agar vs control (HCT-116 [2]; 0.1 µM SC-1 for five days): significant increases in cloning efficiencies
- Clonogenicity (HCT-116 [2]; [5]): Y
- Cloning efficiency in soft agar vs control (HT29; 0.1 µM SC-1 for five days): significant increases in cloning efficiencies
- Clonogenicity (HT29; [5]): Y
- Cloning efficiency in soft agar vs control (KM12; 0.1 µM SC-1 for five days): significant increases in cloning efficiencies
- Clonogenicity (KM12; [5]): Y
- Expression of the putative CSC markers (COLO 205 [3]): No increased expression
- Distribution of cell population across the cell cycle vs control (HCT-116 [4]): no difference
- pIC50 (Abl1): 8.30
- pIC50 (PLK2): 5.66
- pIC50 (RSK1): 6.30
- pIC50 (RSK2): 5.60
- pIC50 (RSK3): 5.48
- pIC50 (RSK4): 5.00
- pIC50 (p70S6K): 5.85
